target: FP receptor (Homo sapiens (Human), UniProt P43088); test: In vitro test of inhibition of human FP receptor activity (PGF2α-induced calcium flux in FP-expressing CHEM1 cells); assay type: cell-based; details: PGF2α 2 nM, some mean values of multiple determinations
Experimental: B-1. In Vitro Test of Inhibition of Human FP Receptor Activity
For the characterization of test substances in respect of FP antagonism, PGF2α-induced calcium flux in FP-expressing CHEM1 cells (Millipore, HTS093C) was used.
10 μl of the prediluted substance solution are added to the Fluo-8-laden cells and incubated at 37° C., 5% CO2 for 10 minutes. The FP receptor is activated by adding 40 μl of 2 nM (final concentration) PGF2α in calcium-free Tyrode, 2 mM CaCl2, 0.002% SmartBlock, and the calcium flux is determined by measuring the fluorescence at ex. 470 nm/[…].
Table 1 below lists the IC50 values from this assay for individual working examples of the invention (some as mean values from multiple independent individual determinations): […]

FP receptor, sequence (P43088 whole entry): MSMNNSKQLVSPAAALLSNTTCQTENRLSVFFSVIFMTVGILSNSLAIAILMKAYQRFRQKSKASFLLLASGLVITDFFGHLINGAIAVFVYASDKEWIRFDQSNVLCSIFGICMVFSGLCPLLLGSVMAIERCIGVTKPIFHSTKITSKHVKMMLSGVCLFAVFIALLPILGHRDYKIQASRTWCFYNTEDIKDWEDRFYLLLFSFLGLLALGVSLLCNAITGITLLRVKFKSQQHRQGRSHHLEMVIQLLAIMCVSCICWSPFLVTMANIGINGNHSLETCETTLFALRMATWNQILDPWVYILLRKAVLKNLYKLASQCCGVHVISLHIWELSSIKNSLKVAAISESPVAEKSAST

| Compound | IC50 [nM] |
| --- | --- |
| Cc1c(N2CCCC(F)C2)nc2ccc(Br)cc2c1C(=O)NCC(CCC(=O)O)c1ccccc1OC(F)(F)F (single isomer, unassigned; (-)) [Example 201, (−)-5-[({6-Bromo-2-[3-fluoropiperidin-1-yl]-3-methylquinolin-4-yl}carbonyl)amino]-4-[2-(trifluoromethoxy)phenyl]pentanoic acid] | 2.7 |
| Cc1c(N2CCCCC2)nc2ccc(Br)cc2c1C(=O)NCC(CCC(=O)O)c1cc(F)ccc1F (single isomer, unassigned; (+)) [Example 257, (+)-5-({[6-Bromo-3-methyl-2-(piperidin-1-yl)quinolin-4-yl]carbonyl}amino)-4-(2,5-difluorophenyl)pentanoic acid] | 15 |
| Cc1c(N2CCCC(F)C2)nc2ccc(Br)cc2c1C(=O)NCC(CCC(=O)O)c1ccccc1Cl (stereo not drawn) [Example 78, 5-[({6-Bromo-2-[3-fluoropiperidin-1-yl]-3-methylquinolin-4-yl}carbonyl)amino]-4-(2-chlorophenyl)pentanoic acid] | 4.4 |
| Cc1ccccc1C(CCC(=O)O)CNC(=O)c1c(C)c(N2CCCC2)nc2ccc(Br)cc12 (single isomer, unassigned; (+)) [Example 233, (+)-5-({[6-Bromo-3-methyl-2-(pyrrolidin-1-yl)quinolin-4-yl]carbonyl}amino)-4-(2-methylphenyl)pentanoic acid] | 84 |
| Cc1c(N2CCCC2)nc2ccc(Br)cc2c1C(=O)NCC(CCC(=O)O)c1ccccc1C(F)(F)F (racemic) [Example 114, (+/−)-5-({[6-Bromo-3-methyl-2-(pyrrolidin-1-yl)quinolin-4-yl]carbonyl}amino)-4-[2-(trifluoromethyl)phenyl]pentanoic acid] | 14 |
| Cc1c(N2CCCC(F)C2)nc2ccc(Br)cc2c1C(=O)NCC(CCC(=O)O)c1c(F)ccc(F)c1Cl (stereo not drawn) [Example 156, 5-[({6-Bromo-2-[3-fluoropiperidin-1-yl]-3-methylquinolin-4-yl}carbonyl)amino]-4-(2-chloro-3,6-difluorophenyl)pentanoic acid] | 2.5 |
| Cc1c(N2CC(F)(F)C2)nc2ccc(Br)cc2c1C(=O)NCC(CCC(=O)O)c1ccccc1Cl (racemic) [Example 75, (+/−)-5-({[6-Bromo-2-(3,3-difluoroazetidin-1-yl)-3-methylquinolin-4-yl]carbonyl}amino)-4-(2-chlorophenyl)pentanoic acid] | 120 |
| Cc1c(N2CCCCC2)nc2ccc(Br)cc2c1C(=O)NCC(CCC(=O)O)c1c(F)cccc1C(F)(F)F (racemic) [Example 160, (+/−)-5-({[6-Bromo-3-methyl-2-(piperidin-1-yl)quinolin-4-yl]carbonyl}amino)-4-[2-fluoro-6-(trifluoromethyl)phenyl]pentanoic acid] | 5.3 |
| Cc1c(N2CC=CCC2)nc2ccc(Br)cc2c1C(=O)NCC(CCC(=O)O)c1ccccc1Cl (single isomer, unassigned) [Example 31, 5-({[6-Bromo-2-(3,6-dihydropyridin-1(2H)-yl)-3-methylquinolin-4-yl]carbonyl}amino)-4-(2-chlorophenyl)pentanoic acid] | 29 |
| COc1ccccc1C(CCC(=O)O)CNC(=O)c1c(C)c(N2CCCCC2)nc2ccc(Br)cc12 (single isomer, unassigned; (-)) [Example 236, (−)-5-({[6-Bromo-3-methyl-2-(piperidin-1-yl)quinolin-4-yl]carbonyl}amino)-4-(2-methoxyphenyl)pentanoic acid] | 11 |
| Cc1c(N2CCCCC2)nc2ccc(Br)cc2c1C(=O)NCC(CCC(=O)O)c1cc(F)ccc1Cl (single isomer, unassigned; (-)) [Example 6, (−)-5-({[6-Bromo-3-methyl-2-(piperidin-1-yl)quinolin-4-yl]carbonyl}amino)-4-(2-chloro-5-fluorophenyl)pentanoic acid] | 7.8 |
| Cc1c(N2CCC[C@@H]2C)nc2ccc(Br)cc2c1C(=O)NCC(CCC(=O)O)c1ccccc1Cl (single isomer, unassigned; (-)) [Example 80] | 98 |
| Cc1c(N2CCCC(F)(F)C2)nc2ccc(Br)cc2c1C(=O)NCC(CCC(=O)O)c1c(F)cccc1F (single isomer, unassigned; (+)) [Example 251, (+)-5-({[6-Bromo-2-(3,3-difluoropiperidin-1-yl)-3-methylquinolin-4-yl]carbonyl}amino)-4-(2,6-difluorophenyl)pentanoic acid] | 72 |
| CCC1CCCN(c2nc3ccc(Br)cc3c(C(=O)NCC(CCC(=O)O)c3ccccc3C(F)(F)F)c2C)C1 (single isomer, unassigned; (+)) [Example 196, (+)-5-[({6-Bromo-2-[3-ethylpiperidin-1-yl]-3-methylquinolin-4-yl}carbonyl)amino]-4-[2-(trifluoromethyl)phenyl]pentanoic acid] | 2.6 |
| [2H]C1([2H])N(c2nc3ccc(Br)cc3c(C(=O)NCC(CCC(=O)O)c3ccccc3OC(F)(F)F)c2C)C([2H])([2H])C([2H])([2H])C([2H])([2H])C1([2H])[2H] (single isomer, unassigned; (+)) [Example 271, (+)-5-[({6-Bromo-3-methyl-2-[(^2H10)piperidin-1-yl]quinolin-4-yl}carbonyl)amino]-4-[2-(trifluoromethoxy)phenyl]pentanoic acid] | 6.3 |
| Cc1ccc(F)cc1C(CCC(=O)O)CNC(=O)c1c(C)c(N2CCCC(F)(F)C2)nc2ccc(Br)cc12 (single isomer, unassigned; (+)) [Example 214, (+)-5-({[6-Bromo-2-(3,3-difluoropiperidin-1-yl)-3-methylquinolin-4-yl]carbonyl}amino)-4-(5-fluoro-2-methylphenyl)pentanoic acid] | 21 |
| Cc1c(N2CCCC2)nc2ccc(Br)cc2c1C(=O)NCC(CCC(=O)O)c1c(F)cccc1F (single isomer, unassigned; (-)) [Example 249, (−)-5-({[6-Bromo-3-methyl-2-(pyrrolidin-1-yl)quinolin-4-yl]carbonyl}amino)-4-(2,6-difluorophenyl)pentanoic acid] | 9.4 |
| Cc1c(N2CCCCC2)nc2ccc(Br)cc2c1C(=O)NCC(CCC(=O)O)c1ccccc1C(F)(F)F (single isomer, unassigned; (-)) [Example 112, (−)-5-({[6-Bromo-3-methyl-2-(piperidin-1-yl)quinolin-4-yl]carbonyl}amino)-4-[2-(trifluoromethyl)phenyl]pentanoic acid] | 3 |
| Cc1ccc(F)cc1C(CCC(=O)O)CNC(=O)c1c(C)c(N2CCCC(F)(F)C2)nc2ccc(Br)cc12 (racemic) [Example 150, (+/−)-5-({[6-Bromo-2-(3,3-difluoropiperidin-1-yl)-3-methylquinolin-4-yl]carbonyl}amino)-4-(5-fluoro-2-methylphenyl)pentanoic acid] | 22 |
| Cc1c(N2CCCC(F)(F)C2)nc2ccc(Br)cc2c1C(=O)NCC(CCC(=O)O)c1cc(F)ccc1F (racemic) [Example 261, (+/−)-5-({[6-Bromo-2-(3,3-difluoropiperidin-1-yl)-3-methylquinolin-4-yl]carbonyl}amino)-4-(2,5-difluorophenyl)pentanoic acid] | 28 |
| Cc1c(N2CCc3ccccc3C2)nc2ccc(Br)cc2c1C(=O)NCC(CCC(=O)O)c1ccccc1Cl (racemic) [Example 84, (+/−)-5-({[6-Bromo-2-(3,4-dihydroisoquinolin-2(1H)-yl)-3-methylquinolin-4-yl]carbonyl}amino)-4-(2-chlorophenyl)pentanoic acid] | 28 |
| Cc1c(N2CCCC(F)(F)C2)nc2ccc(Br)cc2c1C(=O)NCC(CCC(=O)O)c1c(Cl)cccc1Cl (single isomer, unassigned; (-)) [Example 265, (−)-5-({[6-Bromo-2-(3,3-difluoropiperidin-1-yl)-3-methylquinolin-4-yl]carbonyl}amino)-4-(2,6-dichlorophenyl)pentanoic acid] | 13 |
| Cc1c(N2CCCC(C)C2)nc2ccc(Br)cc2c1C(=O)NCC(CCC(=O)O)c1ccccc1C(F)(F)F (single isomer, unassigned; (+)) [Example 198, (+)-5-[({6-Bromo-3-methyl-2-[3-methylpiperidin-1-yl]quinolin-4-yl}carbonyl)amino]-4-[2-(trifluoromethyl)phenyl]pentanoic acid] | 3.7 |
| Cc1c(N2CCCC3(CC3)C2)nc2ccc(Br)cc2c1C(=O)NCC(CCC(=O)O)c1ccccc1Cl (racemic) [Example 110, (+/−)-5-({[2-(5-Azaspiro[2.5]oct-5-yl)-6-bromo-3-methylquinolin-4-yl]carbonyl}amino)-4-(2-chlorophenyl)pentanoic acid] | 24 |
| Cc1c(N2CCCCC2)nc2ccc(Br)cc2c1C(=O)NCC(CCC(=O)O)c1cc(F)ccc1F (racemic) [Example 255, (+/−)-5-({[6-Bromo-3-methyl-2-(piperidin-1-yl)quinolin-4-yl]carbonyl}amino)-4-(2,5-difluorophenyl)pentanoic acid] | 20 |
| Cc1c(N2CCCC(F)(F)C2)nc2ccc(Br)cc2c1C(=O)NCC(CCC(=O)O)c1c(F)ccc(F)c1Cl (single isomer, unassigned; (+)) [Example 217, (+)-5-({[6-Bromo-2-(3,3-difluoropiperidin-1-yl)-3-methylquinolin-4-yl]carbonyl}amino)-4-(2-chloro-3,6-difluorophenyl)pentanoic acid] | 50 |
| Cc1c(N2CCCC(C(F)(F)F)C2)nc2ccc(Br)cc2c1C(=O)NCC(CCC(=O)O)c1ccccc1Cl (stereo not drawn) [Example 53, 5-[({6-Bromo-3-methyl-2-[3-(trifluoromethyl)piperidin-1-yl]quinolin-4-yl}carbonyl)amino]-4-(2-chlorophenyl)pentanoic acid] | 5.7 |

— patent US11149018B2, “Substituted N-arylethyl-2-aminoquinoline-4-carboxamides and use thereof” (Bayer Aktiengesellschaft, priority 2017, dated 2021)
